Experimental data from US11168067B2, “Substituted quinazoline compound having blood-brain barrier penetration capability” (WEISHANG (SHANGHAI) BIO-PHARMACEUTICAL CO., LTD., priority 2016, dated 2021).

Columns and labels:
[1] = system: PC-9-luc tumor cells; assay: Efficacy study on intracranial animal model (PC-9-luc); assay type: in vivo; settings: Iressa human equivalent dose, 8 mice per group
Source text: The injection was slowly preceded over a one-minute period. Upon completing injection, the needle was retained for another minute. After the needle removal, the hole was sealed with bone wax and the incision was closed. The tumor growth was monitored by image analysis. On Day 10, mice were randomized into 5 groups (8 mice per group) and start the treatments for three weeks.
The tumor growth was monitored by bioiluminense intensity. […] The survival benefits (no death or bodyweight loss less than 18%) treatment with compound X disclosed in table 3.

[2] = Blood-brain barrier penetration (brain tissue to plasma concentration ratio); assay type: in vivo; settings: rat, rats, four hours after dosing
Method: To determine whether the compound was able to cross the blood-brain barrier (BBB), the rats were administered with the test compound. Four hours after dosing, rats were sacrificed, blood and brain tissue were collected and the concentration of the test compound was analyzed. Brain permeation is defined as the ratio of the concentration of the compound in the brain tissue to the concentration in the plasma. P-glycoprotein is the blood-brain barrier efflux protein, […].

[3] = biological target: P-glycoprotein (Homo sapiens, UniProt P08183); assay: P-glycoprotein efflux substrate; assay type: in vitro ADME
Sequence of P-glycoprotein (P08183 whole entry): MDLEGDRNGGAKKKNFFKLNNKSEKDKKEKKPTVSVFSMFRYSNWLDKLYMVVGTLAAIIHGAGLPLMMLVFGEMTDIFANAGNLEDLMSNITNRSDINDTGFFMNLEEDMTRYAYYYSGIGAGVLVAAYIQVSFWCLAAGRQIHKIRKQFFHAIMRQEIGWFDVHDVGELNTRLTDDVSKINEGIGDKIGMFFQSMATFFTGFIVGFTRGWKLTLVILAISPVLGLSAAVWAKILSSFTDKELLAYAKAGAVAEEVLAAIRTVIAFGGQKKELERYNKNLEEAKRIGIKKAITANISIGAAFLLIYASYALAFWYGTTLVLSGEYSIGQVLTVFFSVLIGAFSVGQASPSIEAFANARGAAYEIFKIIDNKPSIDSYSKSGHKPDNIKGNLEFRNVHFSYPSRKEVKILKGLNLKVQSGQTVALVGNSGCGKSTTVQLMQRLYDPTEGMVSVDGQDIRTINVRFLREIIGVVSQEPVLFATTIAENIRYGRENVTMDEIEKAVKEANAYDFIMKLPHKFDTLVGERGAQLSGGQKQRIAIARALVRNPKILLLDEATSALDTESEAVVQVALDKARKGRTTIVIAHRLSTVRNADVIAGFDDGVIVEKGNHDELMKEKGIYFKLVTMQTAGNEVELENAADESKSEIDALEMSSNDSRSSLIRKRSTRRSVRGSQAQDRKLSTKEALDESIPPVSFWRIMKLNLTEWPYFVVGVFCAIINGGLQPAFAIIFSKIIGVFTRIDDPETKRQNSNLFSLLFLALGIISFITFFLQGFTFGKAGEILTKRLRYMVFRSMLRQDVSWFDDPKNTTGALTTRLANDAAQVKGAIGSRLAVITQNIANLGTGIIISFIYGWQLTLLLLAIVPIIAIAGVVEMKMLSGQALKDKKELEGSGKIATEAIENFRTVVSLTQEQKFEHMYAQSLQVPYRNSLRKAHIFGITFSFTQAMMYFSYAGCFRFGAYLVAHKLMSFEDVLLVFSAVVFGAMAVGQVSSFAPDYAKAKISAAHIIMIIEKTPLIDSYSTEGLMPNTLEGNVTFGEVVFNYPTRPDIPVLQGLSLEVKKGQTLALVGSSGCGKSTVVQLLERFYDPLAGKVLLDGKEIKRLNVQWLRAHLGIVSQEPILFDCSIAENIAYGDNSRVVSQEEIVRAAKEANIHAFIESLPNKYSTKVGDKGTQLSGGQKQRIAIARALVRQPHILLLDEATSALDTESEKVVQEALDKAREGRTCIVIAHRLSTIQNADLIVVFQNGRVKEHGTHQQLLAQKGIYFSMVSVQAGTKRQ

[4] = system: PC-9 tumor cell; assay: CellTiter-Glo (CTG) cell viability assay, PC-9 tumor cell growth inhibition; settings: Homo sapiens, PC-9, 72 h, read-out: PC-9 tumor cell growth inhibition IC50
Method: Cell viability of tumor cells with EGFR-activated mutations (exon 19-deficient Exon 19 Del) protein was detected using CellTiter-Glo (CTG) assay; about 5000 cells were seeded in each blank 96-well plate, 16 hours later, add the proportionally diluted compound, equilibrated at room temperature for 72 hours after the addition of the drug for 30 minutes. 100 μl of CellTiter-Glo reagent was added to each well and the orbital shaker was mixed for 2 minutes to induce cell lysis. The plate was incubated at room temperature for 10 minutes to stabilize the luminescence signal. The TECAN Infinite M1000 Pro instrument records the luminescence signal.

IC50 [4] [nM] | Compound | survival (no death or bodyweight loss less than 18%), mice at D 20 ([1]; D 20 post tumor implantation) | survival, mice at D 24 ([1]; D 24 post tumor implantation) | survival, mice at D 27 ([1]; D 27 post tumor implantation) | survival, mice at D 28 ([1]; D 28 post tumor implantation) | survival, mice at D 30 ([1]; D 30 post tumor implantation) | survival, mice at D 31 ([1]; D 31 post tumor implantation) | Kp at 4 h [2] | P-glycoprotein efflux substrate [3]
– | COc1cc2ncnc(Nc3ccc(F)c(Cl)c3)c2cc1OCCCN1CCOCC1 [Iressa, gefitinib] | 8 | 7 | 7 | 7 | 7 | 4 | < 0.05 | yes
< 1 | COc1cc2ncnc(Nc3ccc(F)c(Cl)c3F)c2cc1O[C@H]1CCN(C2COC2)CC1(F)F [Compound 25, (S)—N-(3-chloro-2,4-difluorophenyl)-6-((3,3-difluoro-1-(oxetan-3-yl)piperidin-4-yl)oxy)-7-methoxyquinazolin-4-amine] | – | – | – | – | – | – | > 0.3 | –
